Test: xn = mol fraction of the nth substance listed
Conditions: 313.15 K, Liquid, Vibrating tube method

CCCCCCCCCC [decane] + CCCO
Conditions | mass density [kg/m3]
100 kPa, x2 = 0.1391 | 716.51
100 kPa, x2 = 0.1907 | 717.9
100 kPa, x2 = 0.3001 | 721.57
100 kPa, x2 = 0.4326 | 726.91
100 kPa, x2 = 0.6863 | 743.48
100 kPa, x2 = 0.8711 | 764.1
1000 kPa, x2 = 0.3001 | 723.23
1000 kPa, x2 = 0.4326 | 728.22
1010 kPa, x2 = 0.1907 | 718.96
1010 kPa, x2 = 0.6863 | 744.97
1010 kPa, x2 = 0.8711 | 765.33
1020 kPa, x2 = 0.1391 | 717.29
2000 kPa, x2 = 0.1391 | 718.2
2000 kPa, x2 = 0.1907 | 719.85
2000 kPa, x2 = 0.8711 | 766.21
2010 kPa, x2 = 0.3001 | 724.13
2010 kPa, x2 = 0.4326 | 729.1
2010 kPa, x2 = 0.6863 | 745.85
3000 kPa, x2 = 0.1391 | 719.08
3000 kPa, x2 = 0.4326 | 730
3010 kPa, x2 = 0.1907 | 720.73
3010 kPa, x2 = 0.6863 | 746.75
3020 kPa, x2 = 0.3001 | 725.02
3020 kPa, x2 = 0.8711 | 767.09
4010 kPa, x2 = 0.1391 | 719.94
4010 kPa, x2 = 0.1907 | 721.6
4010 kPa, x2 = 0.3001 | 725.89
4010 kPa, x2 = 0.6863 | 747.62
4010 kPa, x2 = 0.8711 | 767.96
4020 kPa, x2 = 0.4326 | 730.9
5000 kPa, x2 = 0.3001 | 726.76
5010 kPa, x2 = 0.1391 | 720.8
5010 kPa, x2 = 0.1907 | 722.46
5020 kPa, x2 = 0.4326 | 731.76
5020 kPa, x2 = 0.6863 | 748.51
5020 kPa, x2 = 0.8711 | 768.83
6000 kPa, x2 = 0.1391 | 721.67
6000 kPa, x2 = 0.4326 | 732.64
6000 kPa, x2 = 0.6863 | 749.38
6010 kPa, x2 = 0.1907 | 723.31
6010 kPa, x2 = 0.8711 | 769.69
6020 kPa, x2 = 0.3001 | 727.63
7000 kPa, x2 = 0.1907 | 724.18
7010 kPa, x2 = 0.1391 | 722.52
7010 kPa, x2 = 0.6863 | 750.25
7020 kPa, x2 = 0.3001 | 728.48
7020 kPa, x2 = 0.4326 | 733.49
7020 kPa, x2 = 0.8711 | 770.55
8000 kPa, x2 = 0.3001 | 729.32
8000 kPa, x2 = 0.6863 | 751.12
8010 kPa, x2 = 0.1391 | 723.35
8010 kPa, x2 = 0.1907 | 725.03
8010 kPa, x2 = 0.4326 | 734.37
8010 kPa, x2 = 0.8711 | 771.39
9010 kPa, x2 = 0.1391 | 724.19
9010 kPa, x2 = 0.1907 | 725.85
9010 kPa, x2 = 0.3001 | 730.17
9010 kPa, x2 = 0.6863 | 751.97
9020 kPa, x2 = 0.4326 | 735.2
9020 kPa, x2 = 0.8711 | 772.23
10000 kPa, x2 = 0.6863 | 752.81
10010 kPa, x2 = 0.1391 | 724.99
10010 kPa, x2 = 0.1907 | 726.66
10010 kPa, x2 = 0.3001 | 731
10010 kPa, x2 = 0.4326 | 736.06
10020 kPa, x2 = 0.8711 | 773.07
11000 kPa, x2 = 0.1907 | 727.49
11000 kPa, x2 = 0.3001 | 731.82
11000 kPa, x2 = 0.6863 | 753.64
11010 kPa, x2 = 0.1391 | 725.82
11010 kPa, x2 = 0.8711 | 773.9
11020 kPa, x2 = 0.4326 | 736.89
12000 kPa, x2 = 0.8711 | 774.72
12010 kPa, x2 = 0.1907 | 728.3
12010 kPa, x2 = 0.3001 | 732.64
12010 kPa, x2 = 0.4326 | 737.71
12010 kPa, x2 = 0.6863 | 754.47
12020 kPa, x2 = 0.1391 | 726.61
13000 kPa, x2 = 0.1391 | 727.41
13000 kPa, x2 = 0.1907 | 729.09
13000 kPa, x2 = 0.8711 | 775.51
13010 kPa, x2 = 0.3001 | 733.44
13010 kPa, x2 = 0.4326 | 738.53
13010 kPa, x2 = 0.6863 | 755.3
14000 kPa, x2 = 0.3001 | 734.23
14010 kPa, x2 = 0.1391 | 728.19
14010 kPa, x2 = 0.4326 | 739.32
14010 kPa, x2 = 0.6863 | 756.1
14020 kPa, x2 = 0.1907 | 729.89
14020 kPa, x2 = 0.8711 | 776.33
15000 kPa, x2 = 0.6863 | 756.89
15010 kPa, x2 = 0.1391 | 728.97
15010 kPa, x2 = 0.1907 | 730.66
15010 kPa, x2 = 0.3001 | 735.01
